# In patent US8846653B2, “Delta-tocotrienol treatment and prevention of pancreatic cancer” (University of South Florida, priority 2006, dated 2014):
# B1: TRAIL: positive control for cell death (protein, UniProt P50591 1-281, looked up)
# Tumor necrosis factor ligand …: MAMMEVQGGPSLGQTCVLIVIFTVLLQSLCVAVTYVYFTNELKQMQDKYSKSGIACFLKEDDSYWDPNDEESMNSPCWQVKWQLRQLVRKMILRTSEETISTVQEKQQNISPLVRERGPQRVAAHITGTRGRSNTLSSPNSKNEKALGRKINSWESSRSGHSFLSNLHLRNGELVIHEKGFYYIYSQTYFRFQEEIKENTKNDKQMVQYIYKYTSYPDPILLMKSARNSCWSKDAEYGLYSIYQGGIFELKENDRIFVSVTNEHLIDMDHEASFFGAFLVG
# Experiments:
# Type in all cases: cell-based, human
# MIA PaCa2 cells = assay: MTT cell viability, δ-tocotrienol, fluorouracil or combination
# Procedure: FIG. 39 is a graph MIA PaCa2 pancreatic cancer cells (3×10^3) treated with indicated concentrations of delta-tocotrienol, fluorouracil (5FU), or a combination of the indicated delta-tocotrienol and 5FU.
# The MiaPaCa 2 cells were plated as above into 96 well plates and treated the following day with increasing concentrations of δ-tocotrienol, fluorouracil (5FU), or a combination of δ-tocotrienol and fluorouracil. The cells were collected and analyzed for cell viability using an MTT assay. […] MIA PaCa2 cells (3×10^3) were cultured as described in the Examples above, in 96-well plates and treated the following day with vehicle, δ-tocotrienol, fluorouracil, or a combination of δ-tocotrienol and fluorouracil.
# MIA PaCa-2 cells = assay: Trypan blue cell death, δ-tocotrienol, 5-FU or combination, 24 hours; details: MIA PaCa-2, 50 μM each
# Procedure: MIA PaCa-2 cells were treated vehicle or an anti-proliferative treatment comprising 50 μM δ-tocotrienol, 50 μM 5-FU, or 50 μM δ-tocotrienol and 50 μM 5-FU for 24 hours. Cells were harvested, fixed, permeablized and stained with trypan blue.
# [1] = tested on: MiaPaCa2 pancreatic cancer cells; assay: Malignant transformation (Soft Agar) colony formation; details: MiaPaCa2, 50 μM, vs vehicle
# Procedure: FIG. 20 is a graph showing the effect of tocotrienols on pancreatic cancer malignant transformation (Soft Agar). […] Bars, SE (n=3). *p<0.001 vs. vehicle. **p<0.02 vs. vehicle. ***p<0.05 vs. vehicle. T=tocopherol, T3=tocotrienol.
# MiaPaCa2 cells (3×10^3) were cultured as described in the Examples above, in 96-well plates and treated with 50 μM of different tocopherol or tocotrienol.
# [2] = tested on: MIA PaCa-2 cells (pZWL vector and myrAKT); assay: Cell death (trypan blue) in vector and myrAKT MIA PaCa-2 cells; details: MIA PaCa-2 vector vs myr-AKT cells, 24 hours, compared to vehicle
# Procedure: FIG. 12 is a graph wherein MIA PaCa-2 cells (pZWL vector and myrAKT) were treated without serum vehicle or δ-tocotrienol (50 μM) for 24 hours, with and without a 10-hour caspase 8/3 inhibitor pretreatment. Cells were also treated with TRAIL as a positive control. Cells were then harvested, fixed, permeablized and stained with trypan blue.
# To further identify the role of AKT in the apoptotic pathways noted in Example 2, functional overexpression of CA-AKT was analyzed in Mia-PaCa2 pancreatic cancer cells. MIA PaCa-2 cells were treated with pZWL vector and myrAKT, a retroviral vector encoding myristoylated AKT, with or without serum, vehicle, or δ-tocotrienol (40 or 50 μM) for 24 hours, with and without a 10-hour caspase 8 inhibitor pretreatment. Cells were also treated with TRAIL as a positive control. Cells were then harvested, fixed, permeablized and stained with trypan blue.
# The myristoylated AKT rescued δ-tocotrienol suppression PI3K-AKT signaling. The MiaPaCa-2 parental cell lines were stably transfected using constitutively active myristoylated AKT in a pWZL vector construct to generate MiaPaCa-2AKT cells. […] Lastly, pretreatment with caspase 3, 8 and 9 inhibitors rescued tocotrienol induced cell death.
molecule,measurement,setting,value
"O=c1[nH]cc(F)c(=O)[nH]1 [5-FU, fluorouracil]",concentration at which the effect became significant vs vehicle,MIA PaCa2 cells,50 µM
same,cell death (Trypan Blue),MIA PaCa-2 cells,increased cell death
Cc1cc(O)cc2c1O[C@](C)(CCC[C@H](C)CCC[C@H](C)CCCC(C)C)CC2 [δ-tocopherol],malignant transformation (Soft Agar),[1],no effect
B1,cell death,[2],comparable to vehicle
